Key:
[1] = system: Clostridium tyrobutyricum (ATCC 25755); assay: Growth of Clostridium tyrobutyricum in batch culture (absorbance at 600 nm); assay type: cell-based; settings: 1 g/L phenolic compound in medium, vs control with no phenolic compound; FIG. 3
Method: (§1) In order to investigate the effect of phenolic compounds on the growth of microorganisms and production of butanol or butyric acid by the microorganisms, microorganisms were cultured in a medium containing phenolic compounds and the cell weight of the microorganisms and the concentration of produced butanol and butyric acid was measured.
(§2) A butyric acid fermentation medium included 20 g of glucose, 5 g of yeast extract, 0.2 g of magnesium sulfate, 0.01 g of manganese sulfate, 0.01 g of iron sulfate, 0.01 g of sodium chloride, 0.5 g of monopotassium phosphate (KH2PO4), 0.5 g of dipotassium phosphate (K2HPO4) and 2 g of ammonium acetate per liter. And, a butanol fermentation medium included 20 g of glucose, 5 g of yeast extract, 0.2 g of magnesium sulfate, 0.01 g of manganese sulfate, 0.01 g of iron sulfate, 0.01 g of sodium chloride, 0.5 g of monopotassium phosphate (KH2PO4), 0.5 g of dipotassium phosphate (K2HPO4) and 2 g of ammonium acetate per liter. Each medium was flushed with argon gas and sterilized at 121° C. for 15 minutes before measurement. Initial pH was adjusted to 6.8 with 1 N potassium hydroxide (KOH).
p-Coumaric acid, ferulic acid, syringaldehyde and vanillic acid, 1 g/L each, were added to the medium as phenolic compounds. A medium with no phenolic compound added was used as control.
Butyric acid fermentation was conducted using Clostridium tyrobutyricum (American Type Culture Collection, ATCC 25755) after culturing for two passages. Butanol fermentation was conducted using Clostridium acetobutylicum (ATCC 824) and Clostridium beijerinckii (National Collection of Industrial, Marine and Food Bacteria, NCIMB 8052) after culturing for two passages.
Butyric acid and butanol fermentation was carried out by adding the culture fluid to a batch fermenter. Batch culture was performed by adding 20 mL of the medium to a 60-mL serum bottle, adding the culture fluid with an amount of 5% based on the medium and then incubating in a shaking incubator at 37° C. and 150 rpm.
The growth of the microorganisms was evaluated by measuring absorbance at 600 nm using a spectrophotometer (UVmini-1240, Shimadzu).
As the surfactant, Tween 80 (BioXtra, Sigma, viscous liquid) was used. The phenolic compound and Tween 80 were added at an amount of 1 g/L to the medium of Example 1. A medium with no phenolic compound or Tween 80 added was used as control.
The growth of Clostridium tyrobutyricum (ATCC 25755) and production of butyric acid thereby in the medium containing the phenolic compounds, 1 g/L each, and 1 g/L of Tween 80 were measured.
Other experimental conditions were the same as in Example 1.
1 g/L of lignin (alkali, Sigma Aldrich 471003) was added to the medium of Example 1 instead of the phenolic compounds. […]

[2] = system: Clostridium tyrobutyricum (ATCC 25755); assay: Production of butyric acid by Clostridium tyrobutyricum (gas chromatography); assay type: cell-based; settings: 1 g/L phenolic compound plus 1 g/L Tween 80; FIG. 4
Method: as §1
as §2, with “Each medium was flushed with argon gas and sterilized at 121° C. for 15 minutes before measurement. Initial pH was adjusted to 6.8 with 1 N potassium hydroxide (KOH).” left out
The concentration of butyric acid and butanol was analyzed using a gas chromatography system (Agilent Technologies 6890N Network GC system) equipped with a flame ionization detector. […]
The growth of Clostridium tyrobutyricum (ATCC 25755) and production of butyric acid thereby in the medium containing the phenolic compounds, 1 g/L each, and 1 g/L of Tween 80 were measured. […]

COc1cc(C=O)cc(OC)c1O [syringaldehyde]
inhibiting the growth of the microorganism [1]: 30%

COc1cc(/C=C/C(=O)O)ccc1O [ferulic acid]
detoxifying effect of added surfactant on butyric acid production [2]: higher detoxifying effect
inhibiting the growth of the microorganism [1]: 74%

COc1cc(C(=O)O)ccc1O [vanillic acid]
inhibiting the growth of the microorganism [1]: 48%

O=C(O)/C=C/c1ccc(O)cc1 [p-coumaric acid, p-Coumaric acid]
detoxifying effect of added surfactant on butyric acid production [2]: higher detoxifying effect
inhibiting the growth of the microorganism [1]: 99%
